± gives the expanded uncertainty stated by the source.
Columns and labels:
[1] = 101 kPa, Liquid
[2] = xn = mol fraction of the nth substance listed; conditions: 101 kPa, Liquid, x2 = 0

Compound	mass density ([1]; 308.15 K) [kg/m3]	viscosity ([1]; 308.15 K) [mPa·s]	mass density ([1]; 313.15 K) [kg/m3]	viscosity ([1]; 313.15 K) [mPa·s]	mass density ([1]; 318.15 K) [kg/m3]	viscosity ([1]; 318.15 K) [mPa·s]	mass density ([1]; 323.15 K) [kg/m3]	viscosity ([1]; 323.15 K) [mPa·s]	mass density ([1]; 328.15 K) [kg/m3]	viscosity ([1]; 328.15 K) [mPa·s]	mass density ([1]; 333.15 K) [kg/m3]	viscosity ([1]; 333.15 K) [mPa·s]	mass density ([1]; 343.15 K) [kg/m3]	viscosity ([1]; 343.15 K) [mPa·s]	mass density ([1]; 353.15 K) [kg/m3]	viscosity ([1]; 353.15 K) [mPa·s]	mass density ([2]; 308.15 K) [kg/m3]	viscosity ([2]; 308.15 K) [mPa·s]	mass density ([2]; 313.15 K) [kg/m3]	viscosity ([2]; 313.15 K) [mPa·s]	further results
Cc1cccc(O)c1 [3-methylphenol]	1021.64 ± 0.61	7.701 ± 0.15	1017.63 ± 0.6	6.12 ± 0.13	1013.6 ± 0.59	5.022 ± 0.11	1009.56 ± 0.58	4.158 ± 0.094	1005.93 ± 0.57	3.518 ± 0.08	1001.44 ± 0.57	2.98 ± 0.068	991.33 ± 4	2.231 ± 0.052	985.42 ± 0.58	1.759 ± 0.042					
OCCO [1,2-ethanediol] + Cc1cccc(O)c1																	1101.88 ± 0.66	11.19 ± 0.21	1098.33 ± 0.65	9.444 ± 0.18	mass density ([2]; 318.15 K): 1094.75 ± 0.64 kg/m3; viscosity ([2]; 318.15 K): 7.972 ± 0.16 mPa·s; mass density ([2]; 323.15 K): 1091.16 ± 0.63 kg/m3; viscosity ([2]; 323.15 K): 6.794 ± 0.14 mPa·s; mass density ([2]; 333.15 K): 1083.94 ± 0.61 kg/m3; viscosity ([2]; 333.15 K): 5.065 ± 0.11 mPa·s; mass density ([2]; 343.15 K): 1074.53 ± 4 kg/m3; viscosity ([2]; 343.15 K): 3.879 ± 0.086 mPa·s; mass density ([2]; 353.15 K): 1069.72 ± 0.57 kg/m3; viscosity ([2]; 353.15 K): 3.058 ± 0.069 mPa·s
CO [methanol]	776.92 ± 0.97	0.476 ± 0.014	772.13 ± 0.98	0.445 ± 0.013	767.31 ± 1	0.421 ± 0.013	762.46 ± 1	0.395 ± 0.012	757.85 ± 1	0.372 ± 0.012											
CO [methanol] + Cc1cccc(O)c1																	776.92 ± 0.97	0.476 ± 0.014	772.13 ± 0.98	0.445 ± 0.013	mass density ([2]; 318.15 K): 767.31 ± 1 kg/m3; viscosity ([2]; 318.15 K): 0.421 ± 0.013 mPa·s; mass density ([2]; 323.15 K): 762.46 ± 1 kg/m3; viscosity ([2]; 323.15 K): 0.395 ± 0.012 mPa·s; mass density ([2]; 328.15 K): 757.85 ± 1 kg/m3; viscosity ([2]; 328.15 K): 0.372 ± 0.012 mPa·s
OCCO [1,2-ethanediol]	1101.88 ± 0.66	11.19 ± 0.21	1098.33 ± 0.65	9.444 ± 0.18	1094.75 ± 0.64	7.972 ± 0.16	1091.16 ± 0.63	6.794 ± 0.14			1083.94 ± 0.61	5.065 ± 0.11	1074.53 ± 4	3.879 ± 0.086	1069.72 ± 0.57	3.058 ± 0.069					
